Measurements taken from ChEMBL document CHEMBL5303573, “Mapping human microbiome drug metabolism by gut bacteria and their genes” (Nature, 2019).

Experiments:
[1] = bacteroides stercoris, 12 h, 2 µM
Description: The drug is tested on Bacteroides stercoris strain: ATCC43183 for biotransformation. The drug concentrations were measured before and after a 12-h incubation by liquid-chromatography-coupled mass spectrometry (LC–MS)

[2] = parabacteroides distasonis, 12 h, 2 µM
Description: The drug is tested on Parabacteroides distasonis strain: ATCC8503 for biotransformation. The drug concentrations were measured before and after a 12-h incubation by liquid-chromatography-coupled mass spectrometry (LC–MS)

[3] = limosilactobacillus reuteri cf48-3a, 12 h, 2 µM
Description: The drug is tested on Lactobacillus reuteri CF48-3A strain: BEI HM-102 for biotransformation. The drug concentrations were measured before and after a 12-h incubation by liquid-chromatography-coupled mass spectrometry (LC–MS)

[4] = The drug is tested on Ruminococcus torques strain: ATCC27756 for biotransformation. The drug concentrations were measured before and after a 12-h incubation by liquid-chromatography-coupled mass spectrometry (LC–MS); type: ADME; parameters: dose 2 uM, timepoint 0 vs 12 hours; details: 2 µM
[5] = victivallis vadensis, 12 h, 2 µM
Description: The drug is tested on Victivallis vadensis strain: ATCC BAA-548 for biotransformation. The drug concentrations were measured before and after a 12-h incubation by liquid-chromatography-coupled mass spectrometry (LC–MS)

[6] = The drug is tested on Bacteroides vulgatus strain: ATCC8482 for biotransformation. The drug concentrations were measured before and after a 12-h incubation by liquid-chromatography-coupled mass spectrometry (LC–MS); details: phocaeicola vulgatus, 2 µM
[7] = The drug is tested on Eggerthella lenta strain: ATCC25559 for biotransformation. The drug concentrations were measured before and after a 12-h incubation by liquid-chromatography-coupled mass spectrometry (LC–MS); details: 2 µM

Row | Compound | Bacterial Biotransformation [1] | Bacterial Biotransformation [2] | Bacterial Biotransformation [3] | Bacterial Biotransformation [4] | Bacterial Biotransformation [5] | Bacterial Biotransformation [6] | Bacterial Biotransformation [7]
1 | Cc1cc2c(cc1S(N)(=O)=O)S(=O)(=O)CCC2 | Compound NOT metabolized | Compound NOT metabolized | Compound NOT metabolized | Compound NOT metabolized | Compound NOT metabolized | Compound NOT metabolized | 
2 | CC1OC(OC2C(O)CC(OC3C(O)CC(OC4CCC5(C)C(CCC6C5CCC5(C)C(C7=CC(=O)OC7)CCC65O)C4)OC3C)OC2C)CC(O)C1O (stereo unspecified) | Compound metabolized | Compound metabolized |  | Compound NOT metabolized | Compound NOT metabolized | Compound metabolized | 
3 | CC(=O)O[C@]1(C(C)=O)CC[C@H]2[C@@H]3C=C(Cl)C4=CC(=O)[C@@H]5C[C@@H]5[C@]4(C)[C@H]3CC[C@@]21C [CYPROTERONE ACETATE] | Compound metabolized | Compound metabolized | Compound NOT metabolized | Compound NOT metabolized | Compound NOT metabolized | Compound metabolized | 
4 | CC(=O)OCC(=O)[C@@]1(OC(C)=O)[C@@H](C)C[C@H]2[C@@H]3C[C@H](F)C4=CC(=O)C=C[C@]4(C)[C@@]3(F)[C@@H](O)C[C@@]21C [DIFLORASONE DIACETATE] | Compound metabolized | Compound metabolized | Compound NOT metabolized |  | Compound metabolized | Compound metabolized | 
5 | O=c1[nH]c2ccccc2n1CCCN1CCC(n2c(=O)[nH]c3cc(Cl)ccc32)CC1 [DOMPERIDONE] | Compound NOT metabolized | Compound NOT metabolized | Compound NOT metabolized | Compound NOT metabolized | Compound NOT metabolized | Compound NOT metabolized | 
6 | COc1cc2nc(N3CCN(C(=O)C4COc5ccccc5O4)CC3)nc(N)c2cc1OC.CS(=O)(=O)O (stereo unspecified) [DOXAZOSIN MESYLATE] | Compound NOT metabolized |  |  | Compound NOT metabolized | Compound NOT metabolized |  | 
7 | CN(C)CCOC(C)(c1ccccc1)c1ccccn1.O=C(O)CCC(=O)O (stereo unspecified) [DOXYLAMINE SUCCINATE] | Compound NOT metabolized | Compound NOT metabolized | Compound NOT metabolized | Compound NOT metabolized | Compound NOT metabolized | Compound NOT metabolized | 
8 | CCOC(=O)[C@H](CCc1ccccc1)N[C@@H](C)C(=O)N1CCC[C@H]1C(=O)O.O=C(O)/C=C\C(=O)O [ENALAPRIL MALEATE] | Compound NOT metabolized | Compound NOT metabolized | Compound NOT metabolized | Compound NOT metabolized | Compound NOT metabolized | Compound NOT metabolized | 
9 | CC(=O)O[C@]1(C(C)=O)CC[C@H]2[C@@H]3C=C(C)C4=CC(=O)CC[C@]4(C)[C@H]3CC[C@@]21C [MEGESTROL ACETATE] | Compound metabolized | Compound metabolized | Compound NOT metabolized | Compound NOT metabolized |  | Compound metabolized | Compound NOT metabolized
10 | CCN(CC)CCNC(=O)c1cc(Cl)c(N)cc1OC [METOCLOPRAMIDE] | Compound NOT metabolized | Compound NOT metabolized | Compound NOT metabolized | Compound NOT metabolized |  | Compound NOT metabolized | Compound NOT metabolized
11 | COc1ccccc1N1CCN(CC(O)COc2cccc3ccccc23)CC1 (stereo unspecified) [NAFTOPIDIL] | Compound NOT metabolized | Compound NOT metabolized | Compound NOT metabolized | Compound NOT metabolized |  | Compound NOT metabolized | Compound NOT metabolized
